According to patent US11649245B2, “Cyclopropylamine compound as LSD1 inhibitor and use thereof” (HELIOEAST PHARMACEUTICAL CO., LTD., priority 2018, dated 2023):
Counter-ions that a name gives are not always drawn.

Tests used:
HL60 cells = assay: Antiproliferation activity on HL60 cells (CellTiter-Glo, 6 days); format: cell-based; conditions: incubated for 6 days
Excerpt: Experimental purpose: to detect the antiproliferation activity of the compound to be tested on HL60 cells.
Experimental materials: RPMI-1640 culture medium, fetal bovine serum, penicillin/streptomycin antibiotics purchased from Wisent. CellTiter-Glo (chemiluminescent cell viability assay reagent) reagents purchased from Promega. HL60 cell line purchased from Nanjing Cobioer Co., Ltd. Nivo multi-label reader (PerkinElmer).
Experimental method: HL60 cells were planted in a white 384-well plate, 40 μL of cell suspension per well, 600 HL60 cells were contained therein. The cell plate was placed in a carbon dioxide incubator for overnight culture. The compounds to be tested were diluted 5-fold with a pipet until the 10th concentration, i.e., diluted from 2 mM to 1.024 nM, double duplicate well experiment was set. 78 μL of the culture medium was added to an intermediate plate, and then 2 μL per well of the serially diluted compounds were transferred to the corresponding positions on the intermediate plate, after mixing, 10 μL per well was transferred to the cell plate. The cell plate was incubated in a carbon dioxide incubator for 6 days. Another cell plate was prepared and the signal value on the day of dosing was read as the maximum value (Max value in the equation below) to participate in the data analysis. 20 μL of chemiluminescent cell viability assay reagent was added to each well of this cell plate, which was incubated at room temperature for 10 minutes to stabilize the luminescence signal. The multi-label reader was used for reading.
Data analysis: the equation (Sample-Min)/(Max-Min)*100% was used to convert the original data into the inhibition rate, the IC50 value can be obtained by curve fitting of four-parameters (“log(inhibitor) vs. response—Variable slope” mode in GraphPad Prism)).

[1] = tested on: human small cell lung cancer NCI-H1417 xenograft tumor model; assay: In vivo pharmacodynamic study on NCI-H1417 subcutaneous xenograft tumor in CB-17 SCID mice; conditions: compound 6 hydrochloride 1.5 mg/kg oral once a day, cisplatin 1 mg/kg i.p. twice a week
Protocol: The purpose of the experiment was to evaluate the in vivo efficacy of the compounds of the present disclosure on subcutaneous xenograft tumor of human small cell lung cancer NCI-H1417 cells in a CB-17 SCID mouse model.
Human small cell lung cancer NCI-H1417 cells (ATCC) were cultured in vitro in a single layer, the culture conditions were RPMI-1640 culture medium supplemented with 10% fetal bovine serum, 37° C. 5% CO2. When the cell saturation reached 80%-90%, the cells were collected, counted, and inoculated.
0.2 mL of 10×10^6 NCI-H1417 cells were subcutaneously inoculated into the right back of each mouse (PBS: Matrigel=1:1). Group administration was started when the average volume reached 100-150 mm^3.
The vehicle used in the experiment was 0.5% methylcellulose solution, the preparation method was: 5 g of methylcellulose was weighed and dissolved in 800 mL ultrapure water, stirred evenly and made up to 1000 mL with ultrapure water. The test substance was dissolved in a solvent and prepared into a uniform solution of a certain concentration, and stored at 4° C.
Cisplatin (Cisplatin, manufacturer Qilu Pharmaceutical Co., Ltd., 10 mg/bottle freeze-dried powder for injection, lot number 7D011A8) was added to 10 mL 0.9% NaCl to make a 1 mg/mL mother liquor, and stored at room temperature and protected from light. The mother liquor was aliquoted into 0.63 mL and stored at room temperature. 5.67 mL 0.9% NaCl was added to one of the 0.63 mL mother liquor to make a 0.1 mg/mL solution.
The experimental indicator is to investigate whether tumor growth was inhibited, delayed, or cured. Tumor diameters were measured with a vernier caliper twice a week. The tumor volume was calculated by the calculation formula: V=0.5a×b^2, a and b respectively represent the long and short diameters of the tumor.
The anti-tumor effect of the compounds was evaluated by TGI (%). TGI (%) can reflect the tumor growth inhibition rate. TGI (%) calculation: TGI (%)=[1-(the average tumor volume at the end of the administration in a treatment group—the average tumor volume at the beginning of the administration in the treatment group)/(the average tumor volume at the end of the treatment of the solvent control group—the average tumor volume at the beginning of the treatment of the solvent control group)]×100%.

[2] = In vivo pharmacokinetics in CD-1 mice; conditions: male CD-1 mice
Protocol: CD-1 mice (male, 7-9 weeks old, Shanghai Slac)
The rodent pharmacokinetic characteristics after intravenous injection and oral administration of the compounds were tested by standard protocols, in the experiment, the candidate compounds were formulated into clear solutions and administrated to mice via a single intravenous injection and oral administration. The vehicle for intravenous injection and oral administration was a mixed solution of 10% of dimethyl sulfoxide and 90% of 10% hydroxypropyl β cyclodextrin. This project used four male CD-1 mice, two mice were administered intravenously, with a dose of 1 mg/kg, and plasma samples were collected at 0 hour (before administration) and 0.0833, 0.25, 0.5, 1, 2, 4, 8, 24 hours after administration. The other two mice were orally administered by gavage, with a dose of 2 mg/kg, plasma samples were collected at 0 hour (before administration) and 0.25, 0.5, 1, 2, 4, 8, 24 hours after administration, whole blood samples were collected within 24 hours, which were centrifuged at 3000 g for 15 minutes, and the supernatants were separated to obtain plasma samples, 4 times volume of acetonitrile solutions containing internal standard were added to precipitate the protein, the mixtures were centrifuged to obtain the supernatants, the supernatants were added with water of equal volume and centrifuged again to take the supernatant for injection, and the blood drug concentration was quantitatively analyzed by the LC-MS/MS analysis method, and pharmacokinetic parameters were calculated, such as max concentration (Cmax), clearance (CL), half-life (T1/2), volumes of distribution (Vdss), the area under the plasma concentration-time curve (AUC0-last), bioavailability (F) etc.

IC50 (HL60 cells): 14.7 nM
Half-life T1/2 (IV) ([2]; IV 1 mg/kg, 1 mg/kg): 1.54 h
clearance ([2]; male, CD-1, mouse, plasma, iv, 1 mg/kg, study doses 1 mg/kg intravenous, 2 mg/kg oral, read-out: Clearance CL): 40.2 mL/min/kg
Vd ([2]; male, CD-1, mouse, plasma, iv, 1 mg/kg, study doses 1 mg/kg intravenous, 2 mg/kg oral, read-out: Volumes of distribution Vdss): 1.19 L/kg
Cmax ([2]; male, CD-1, mouse, plasma, study doses 1 mg/kg intravenous, 2 mg/kg oral, route not given, read-out: Max concentration Cmax): 718 nM
AUC(0-t) ([2]; male, CD-1, mouse, plasma, po, 2 mg/kg, PO 2 mg/kg, read-out: The area under the plasma concentration-time curve AUC0-last PO): 0.691 µM·h
bioavailability ([2]; male, CD-1, mouse, plasma, po, 2 mg/kg, oral 2 mg/kg vs intravenous 1 mg/kg, read-out: Bioavailability F): 33.2%
Compound: O=C(O)c1ccc(CN2CCC3(CC2)CC(N[C@@H]2C[C@H]2c2ccccc2)CO3)cc1 (stereo partly drawn) [Hydrochloride of the compound 6]
Tumor volume mean ± SEM (28th day) ([1]; CB-17 SCID mice): 187 ± 14 mm^3
TGI ([1]; tumor growth inhibition rate, 28th day): 79.2%
